The structures appear in SMILES notation. Residues, ends and D or L forms follow the SMILES beside them.

In the experiment the target is IL-17RA/IL17RC dimerization induced by IL-17A (Homo sapiens, UniProt Q16552). Kind of experiment: IL-17RA/IL17RC dimerization assay in response to IL-17A (PathHunter Cytokine Receptor Assay). The format is cell-based. To be noted: IL-17A at EC80; read-out: IC50 in IL-17RA/IL7RC dimerization assay. A digest of the protocol: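 PathHunter cells with IL-17RA and IL-17RC tagged for β-galactosidase complementation were preincubated 60 min with peptide (1% vehicle). IL-17A was then added at EC80 for 6–16 h at 37 °C, and chemiluminescence was read. Inhibition is relative to the EC80 and vehicle controls.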
Sequence of IL-17RA/IL17RC dimerization induced by IL-17A (Q16552 24-155): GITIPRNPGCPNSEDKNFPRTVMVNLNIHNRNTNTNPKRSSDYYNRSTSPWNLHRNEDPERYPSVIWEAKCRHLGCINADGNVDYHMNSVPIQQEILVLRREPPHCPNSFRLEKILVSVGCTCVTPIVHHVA

With `CC[C@H](C)[C@H](NC(C)=O)C(=O)N[C@@H](Cc1c[nH]cn1)C(=O)N[C@H](C(=O)N[C@H](C(=O)N[C@H](C(=O)N1CCC[C@H]1C(=O)N[C@@H](C)C(=O)N[C@@H](CC(=O)O)C(=O)N[C@@H](CC(C)C)C(=O)N[C@@H](Cc1ccccc1)C(=O)N[C@@H](CC(=O)O)C(=O)N[C@@H](Cc1c[nH]c2ccccc12)C(=O)N[C@H](C(=O)N[C@@H](CC(N)=O)C(=O)N[C@@H](CCCCN)C(N)=O)[C@@H](C)CC)[C@@H](C)CC)[C@@H](C)O)C(C)C` [SEQ ID NO: 207] (Ac-IHVTIPADLFDWINK-NH2), the IC50 is less than 10 µM.

`CC(=O)N[C@H](C(=O)N[C@@H](Cc1c[nH]cn1)C(=O)N[C@@H](Cc1ccccc1)C(=O)N[C@H](C(=O)N[C@@H](Cc1ccccc1)C(=O)N1CCC[C@H]1C(=O)N[C@@H](CCC(N)=O)C(=O)N[C@@H](CC(=O)O)C(=O)N[C@@H](CC(C)C)C(=O)N[C@@H](Cc1c[nH]c2ccccc12)C(=O)N[C@@H](CC(N)=O)C(=O)N[C@@H](Cc1c[nH]c2ccccc12)C(=O)N[C@H](C(=O)N[C@@H](CCCNC(=N)N)C(=O)N[C@@H](CCCNC(=N)N)C(N)=O)C(C)C)[C@@H](C)O)C(C)C` [SEQ ID NO: 127] (Ac-VHFTFPQDLWNWVRR-NH2): the IC50 was less than 0.5 µM.

Regarding `CC[C@H](C)[C@H](NC(C)=O)C(=O)N[C@@H](Cc1c[nH]cn1)C(=O)N[C@@H](CC(C)C)C(=O)N[C@H](C(=O)N[C@H](C(=O)N1CCC[C@H]1C(=O)N[C@@H](C)C(=O)N[C@@H](CC(=O)O)C(=O)N[C@@H](CC(C)C)C(=O)N[C@@H](Cc1c[nH]c2ccccc12)C(=O)N[C@@H](CC(=O)O)C(=O)N[C@@H](Cc1c[nH]c2ccccc12)C(=O)N[C@H](C(=O)N[C@@H](CC(N)=O)C(=O)N[C@@H](CCCCN)C(N)=O)[C@@H](C)CC)[C@@H](C)CC)[C@@H](C)O` [SEQ ID NO: 169] (Ac-IHLTIPADLWDWINK-NH2), the IC50 was less than 10 µM.

Consider `CC[C@H](C)[C@H](NC(C)=O)C(=O)N[C@@H](Cc1c[nH]cn1)C(=O)N[C@H](C(=O)N[C@H](C(=O)N[C@H](C(=O)N1CCC[C@H]1C(=O)N[C@@H](C)C(=O)N[C@@H](CC(=O)O)C(=O)N[C@@H](CC(C)C)C(=O)N[C@@H](Cc1c[nH]c2ccccc12)C(=O)N[C@@H](CC(=O)O)C(=O)N[C@@H](Cc1c[nH]c2ccccc12)C(=O)NCC(=O)N[C@@H](CC(N)=O)C(=O)N[C@@H](CCCCN)C(N)=O)[C@@H](C)CC)[C@@H](C)O)C(C)C` [SEQ ID NO: 215] (Ac-IHVTIPADLWDWGNK-NH2), for which the IC50 was less than 10 µM.

With `CC(=O)N[C@H](C(=O)N[C@@H](Cc1c[nH]cn1)C(=O)N[C@@H](Cc1ccccc1)C(=O)N[C@@H](CCC(N)=O)C(=O)N[C@@H](Cc1ccccc1)C(=O)N1CCC[C@H]1C(=O)N[C@@H](C)C(=O)N[C@@H](CC(=O)O)C(=O)N[C@@H](CC(C)C)C(=O)N[C@@H](Cc1c[nH]c2ccccc12)C(=O)N[C@@H](CCC(=O)O)C(=O)N[C@@H](Cc1c[nH]c2ccccc12)C(=O)N[C@H](C(=O)N[C@@H](CCCNC(=N)N)C(=O)N[C@@H](CCCNC(=N)N)C(N)=O)C(C)C)C(C)C` [SEQ ID NO: 130] (Ac-VHFQFPADLWEWVRR-NH2), the IC50 was less than 0.5 µM.

For `CC[C@H](C)[C@H](NC(C)=O)C(=O)N[C@@H](Cc1c[nH]cn1)C(=O)N[C@H](C(=O)N[C@H](C(=O)N1CCC[C@H]1C(=O)N1CCC[C@H]1C(=O)N[C@@H](C)C(=O)N[C@@H](CC(=O)O)C(=O)N[C@@H](CC(C)C)C(=O)N[C@@H](Cc1c[nH]c2ccccc12)C(=O)N[C@@H](CC(=O)O)C(=O)N[C@@H](Cc1c[nH]c2ccccc12)C(=O)N[C@H](C(=O)N[C@@H](CC(N)=O)C(=O)N[C@@H](CCCCN)C(N)=O)[C@@H](C)CC)[C@@H](C)O)C(C)C` [SEQ ID NO: 182] (Ac-IHVTPPADLWDWINK-NH2), the IC50 was less than 10 µM.

For the compound `CC[C@H](C)[C@H](NC(=O)[C@H](Cc1c[nH]c2ccccc12)NC(=O)[C@H](CC(=O)O)NC(=O)[C@H](Cc1c[nH]c2ccccc12)NC(=O)[C@H](CC(C)C)NC(=O)[C@H](CC(=O)O)NC(=O)[C@H](C)NC(=O)[C@@H]1CCCN1C(=O)[C@@H](NC(=O)[C@H](Cc1ccc(O)cc1)NC(=O)[C@@H](NC(=O)[C@H](CCCNC(=N)N)NC(=O)[C@H](CC(C)C)NC(C)=O)[C@@H](C)CC)C(C)C)C(=O)N[C@@H](CC(N)=O)C(=O)N[C@@H](CCCCN)C(N)=O` [SEQ ID NO: 241] (Ac-LRIYVPADLWDWINK-NH2), the IC50 is less than 10 µM.

For the compound `CC(=O)N[C@H](C(=O)N[C@@H](Cc1c[nH]cn1)C(=O)N[C@@H](Cc1ccccc1)C(=O)N[C@@H](CCC(N)=O)C(=O)N[C@@H](Cc1ccccc1)C(=O)N1CCC[C@H]1C(=O)N[C@@H](CCC(N)=O)C(=O)N[C@@H](CC(=O)O)C(=O)N[C@@H](Cc1c[nH]c2ccccc12)C(=O)N[C@@H](Cc1c[nH]c2ccccc12)C(=O)N[C@@H](CC(N)=O)C(=O)N[C@@H](Cc1c[nH]c2ccccc12)C(=O)N[C@H](C(=O)N[C@@H](CCCNC(=N)N)C(=O)N[C@@H](CCCNC(=N)N)C(N)=O)C(C)C)C(C)C` [SEQ ID NO: 139] (Ac-VHFQFPQDWWNWVRR-NH2), the IC50 is less than 0.5 µM.

Take `CC(=O)N[C@H](C(=O)N[C@@H](CCCNC(=N)N)C(=O)N[C@H](C(=O)N[C@H](C(=O)N[C@H](C(=O)N1CCC[C@H]1C(=O)N[C@@H](CCC(N)=O)C(=O)N[C@@H](CCC(=O)O)C(=O)N[C@@H](CC(C)C)C(=O)N[C@@H](Cc1ccc(O)cc1)C(=O)N[C@@H](CCC(=O)O)C(=O)N[C@@H](Cc1c[nH]c2ccccc12)C(=O)N[C@H](C(=O)N[C@@H](CCCNC(=N)N)C(=O)N[C@@H](CCCNC(=N)N)C(N)=O)C(C)C)C(C)C)[C@@H](C)O)C(C)C)C(C)C` [SEQ ID NO: 234] (Ac-VRVTVPQELYEWVRR-NH2): the IC50 is less than 10 µM.

With `CC(=O)N[C@H](C(=O)N[C@@H](Cc1c[nH]cn1)C(=O)N[C@@H](Cc1ccccc1)C(=O)N[C@H](C(=O)N[C@@H](Cc1ccccc1)C(=O)N1CCC[C@H]1C(=O)N[C@@H](CCC(N)=O)C(=O)N[C@@H](CC(=O)O)C(=O)N[C@@H](CC(C)C)C(=O)N[C@@H](Cc1c[nH]c2ccccc12)C(=O)N[C@@H](CCC(=O)O)C(=O)N[C@@H](Cc1c[nH]c2ccccc12)C(=O)N[C@H](C(=O)N[C@@H](CCCNC(=N)N)C(=O)N[C@@H](CCCNC(=N)N)C(N)=O)C(C)C)[C@@H](C)O)C(C)C` [SEQ ID NO: 124] (Ac-VHFTFPQDLWEWVRR-NH2), the IC50 was less than 0.5 µM.

With `CC(=O)N[C@H](C(=O)N[C@@H](Cc1c[nH]cn1)C(=O)N[C@@H](Cc1ccccc1)C(=O)N[C@@H](CCC(N)=O)C(=O)N[C@@H](Cc1ccccc1)C(=O)N1CCC[C@H]1C(=O)N[C@@H](C)C(=O)N[C@@H](CC(=O)O)C(=O)N[C@@H](CC(C)C)C(=O)N[C@@H](Cc1ccc(O)cc1)C(=O)N[C@@H](CCC(=O)O)C(=O)N[C@@H](Cc1c[nH]c2ccccc12)C(=O)N[C@H](C(=O)N[C@@H](CCCNC(=N)N)C(=O)N[C@@H](CCCNC(=N)N)C(N)=O)C(C)C)C(C)C` [SEQ ID NO: 132] (Ac-VHFQFPADLYEWVRR-NH2), the IC50 was less than 0.5 µM.

Turning to `CC[C@H](C)[C@H](NC(C)=O)C(=O)N[C@@H](Cc1c[nH]cn1)C(=O)N[C@H](C(=O)N[C@H](C(=O)N[C@H](C(=O)N1CCC[C@H]1C(=O)N1CCC[C@H]1C(=O)N[C@@H](CC(=O)O)C(=O)N[C@@H](CC(C)C)C(=O)N[C@@H](Cc1c[nH]c2ccccc12)C(=O)N[C@@H](CC(=O)O)C(=O)N[C@@H](Cc1c[nH]c2ccccc12)C(=O)N[C@H](C(=O)N[C@@H](CC(N)=O)C(=O)N[C@@H](CCCCN)C(N)=O)[C@@H](C)CC)[C@@H](C)CC)[C@@H](C)O)C(C)C` [SEQ ID NO: 194] (Ac-IHVTIPPDLWDWINK-NH2), the IC50 was less than 10 µM.

In the case of `CC[C@H](C)[C@H](NC(C)=O)C(=O)N[C@@H](Cc1c[nH]cn1)C(=O)N[C@H](C(=O)N[C@H](C(=O)N[C@H](C(=O)N1CCC[C@H]1C(=O)N[C@@H](C)C(=O)N[C@@H](CC(=O)O)C(=O)N[C@@H](CC(C)C)C(=O)N[C@@H](Cc1c[nH]cn1)C(=O)N[C@@H](CC(=O)O)C(=O)N[C@@H](Cc1c[nH]c2ccccc12)C(=O)N[C@H](C(=O)N[C@@H](CC(N)=O)C(=O)N[C@@H](CCCCN)C(N)=O)[C@@H](C)CC)[C@@H](C)CC)[C@@H](C)O)C(C)C` [SEQ ID NO: 206] (Ac-IHVTIPADLHDWINK-NH2), the IC50 was less than 10 µM.

For the compound `CC[C@H](C)[C@H](NC(C)=O)C(=O)N[C@@H](Cc1ccc(O)cc1)C(=O)N[C@H](C(=O)N[C@H](C(=O)N[C@H](C(=O)N1CCC[C@H]1C(=O)N[C@@H](C)C(=O)N[C@@H](CC(=O)O)C(=O)N[C@@H](CC(C)C)C(=O)N[C@@H](Cc1c[nH]c2ccccc12)C(=O)N[C@@H](CC(=O)O)C(=O)N[C@@H](Cc1c[nH]c2ccccc12)C(=O)N[C@H](C(=O)N[C@@H](CC(N)=O)C(=O)N[C@@H](CCCCN)C(N)=O)[C@@H](C)CC)[C@@H](C)CC)[C@@H](C)O)C(C)C` [SEQ ID NO: 166] (Ac-IYVTIPADLWDWINK-NH2), the IC50 was less than 10 µM.

Regarding `CC[C@H](C)[C@H](NC(C)=O)C(=O)N[C@@H](Cc1c[nH]cn1)C(=O)N[C@H](C(=O)N[C@H](C(=O)N[C@H](C(=O)N1CCC[C@H]1C(=O)N[C@@H](C)C(=O)N[C@@H](CC(=O)O)C(=O)N[C@@H](CC(C)C)C(=O)N[C@@H](Cc1c[nH]c2ccccc12)C(=O)N[C@@H](CC(=O)O)C(=O)N[C@@H](Cc1ccc(O)cc1)C(=O)N[C@H](C(=O)N[C@@H](CC(N)=O)C(=O)N[C@@H](CCCCN)C(N)=O)[C@@H](C)CC)[C@@H](C)CC)[C@@H](C)O)C(C)C` [SEQ ID NO: 211] (Ac-IHVTIPADLWDYINK-NH2), the IC50 is less than 10 µM.

As to `CC[C@H](C)[C@H](NC(C)=O)C(=O)N[C@@H](Cc1c[nH]cn1)C(=O)N[C@H](C(=O)N[C@H](C(=O)N[C@H](C(=O)N1CCC[C@H]1C(=O)N[C@@H](CCC(N)=O)C(=O)N[C@@H](CC(=O)O)C(=O)N[C@@H](CC(C)C)C(=O)N[C@@H](Cc1c[nH]c2ccccc12)C(=O)N[C@@H](CC(=O)O)C(=O)N[C@@H](Cc1c[nH]c2ccccc12)C(=O)N[C@H](C(=O)N[C@@H](CC(N)=O)C(=O)N[C@@H](CCCCN)C(N)=O)[C@@H](C)CC)[C@@H](C)CC)[C@@H](C)O)C(C)C` [SEQ ID NO: 198] (Ac-IHVTIPQDLWDWINK-NH2), the IC50 is less than 10 µM.

These data come from patent US11236129B2, “IL-17A binding peptides and medical uses thereof” (Dompe' Farmaceutici S.P.A., priority 2018, dated 2022).
